Here are results for three compounds from patent US20060095982A1 (priority 2002, published 2006).

For series [1], the system named is wild type tobacco plants (Petit Havana). To be noted: 14 days.
Series [2] concerns merAB seedlings (pLDR-MerAB and pLDR-MerAB-3′UTR clones). To be noted: 14 days.
Series [3] concerns wild type tobacco plants. To be noted: increase in PMA from 0 to 400 μM in soil, 14 d.
For series [4], the system named is transgenic tobacco lines 5A (pLDR-MerAB) and 9 (pLDR-MerAB-3′UTR).
The subject of series [5] is leaf disks of wild type tobacco. To be noted: 10 μM PMA.
The subject of series [6] is leaf disks of transgenic tobacco lines. To be noted: 10 μM PMA.
Series [7] has as its system WT tobacco plants. The experiment in a line: Speciation of Hg by X-ray absorption spectroscopy, WT.
Series [8] deals with WT tobacco plants. The experiment in a line: Plant growth and tolerance on Hg-amended soil (dry weight, root length), WT.
The test system of series [9] is chloroplast engineered pLDR-merAB and pLDR-merAB 3′UTR tobacco plants. The experiment in a line: Plant growth and tolerance on Hg-amended soil (dry weight, root length), transgenic lines.
The subject of series [10] is Salvia natans. To be noted: 5 μg/ml HgCl2; cited from earlier work.
Series [11] relates to Bacopa monnieri. To be noted: 5 μg/ml HgCl2; cited from earlier work.
The subject of series [12] is WT tobacco plant (Petit Havana). The experiment in a line: Hg accumulation in shoots and roots (CVAAS), WT.
Series [13] concerns E. coli cells containing pLDR-MerAB and pLDR-MerAB-3′UTR. In words: Mercury resistance bioassay in bacteria, transformed clones. To be noted: 24 hours at 37° C.
In series [14] the test system is transgenic tobacco lines 5A (pLDR-MerAB) and 9 (pLDR-MerAB-3′UTR). The experiment in a line: Hg accumulation in shoots and roots (CVAAS), transgenic lines.
The test system of series [15] is Untransformed E. coli cells (XL1-blue). The experiment in a line: Mercury resistance bioassay in bacteria, untransformed control. To be noted: 25 μM HgCl2.
Series [16] has as its system mer-AB transgenic tobacco shoots and roots. The experiment in a line: Speciation of Hg by X-ray absorption spectroscopy, transgenic plants. To be noted: 100 μM for 15 d.
Series [17] deals with Chlorella. In words: Preliminary heavy metal tolerance of wild-type Chlorella. To be noted: preliminary studies.

Marks after values point to notes of the source that are not given here.

Turning to `CC(=O)[O-].[Hg+][c]1ccccc1` [PMA, phenylmercuric acetate], the “survival of wild type plants” value in [1] (50 μM PMA in soil) is “barely survived”. In addition, the “effect on wild type plants” value in series [1] (100 and 200 μM PMA in soil) is reported as “lethal”. The “survival of merAB seedlings” value in [2] (200 μM PMA in soil) is recorded as “survived”. In [2] (soil, both transgenic clones), the “PMA concentration at which seedlings grew well” value is on record as “up to 100 μM”. Further, in series [3], the “total dry weight of wild type plants” value was “decreased progressively”. Also, the “concentration tolerated when grown in soil” value in series [4] (chloroplast transformed lines) is “up to 400 μM”. For the same compound, the “total dry weight of transgenic plants” value in series [4] (increase in PMA until PMA reached 400 μM, soil, 14 d) is listed as “no decrease in total dry weight”. Also, the “chlorophyll content of leaf disks” value in [5] is “reduced”; in series [6], “markedly increased”. Besides, in series [7], the “form of mercury accumulated by WT plants (XAS edge-fitting)” value is “entirely in the form of the mercury supplied”. Besides, the “average reduction of root length” value was 6 cm in series [8] (WT, concentration increased from 0 μM to 300 μM) and 4 cm in series [9] (both transgenic lines, concentration increased from 0 μM to 300 μM). In [8] (concentration increased from 0 to 300 μM in soil, 15 days), the “dry weights of WT shoots and roots” value is listed as “decreased progressively”. The “dry weights of transgenic lines relative to WT” value in series [9] (under PMA treatment) amounted to 2 fold.

Consider `[Cl][Hg][Cl]` [HgCl2, mercuric chloride], for which the entries for the “reduction of chlorophyll content” value in series [10] and in series [11] were 26% and 35%, respectively. For the same compound, the “Hg accumulation, Root, WT” value in [12] (soil amended with 100 μM) is 97.04; in [12] (soil amended with 200 μM), 143.8; in series [12] (soil amended with 300 μM), 120.1. Moreover, the “Hg accumulation, Shoot, WT” value in series [12] (soil amended with 100 μM) amounted to 4.74; in [12] (soil amended with 200 μM) it was 0.57; in series [12] (soil amended with 300 μM) it was 0.23. In addition, the “form of mercury accumulated by WT plants (XAS edge-fitting)” value in series [7] was “entirely in the form of the mercury supplied”. Moreover, the “growth in liquid broth” value in series [13] (25 and 50 μM HgCl2, LB broth) is “able to grow”. In series [13] (solid agar plates, LB), the “concentrations of HgCl2 in which cells were able to grow” value is “up to 100 μM”. Moreover, the “mercury accumulated in shoots of transgenic plants relative to WT” value in series [14] (100 μM) is 3 times; in series [14] (200 μM), 9 times. Further, the “Hg accumulation, Root, 5A” value is given as 115.1 in [14] (soil amended with 100 μM), 215.5 in [14] (soil amended with 200 μM) and 333.8* in series [14] (soil amended with 300 μM). Further, the “Hg accumulation, Root, 9” value in series [14] (soil amended with 100 μM) worked out at 114.8; in series [14] (soil amended with 200 μM), 149.5; in series [14] (soil amended with 300 μM), 377.4. Further, the “Hg accumulation, Shoot, 5A” value in [14] (soil amended with 100 μM) was 7.42; in series [14] (soil amended with 200 μM), 6.4**; in series [14] (soil amended with 300 μM) it was 0.6*. Besides, the “Hg accumulation, Shoot, 9” value in [14] (soil amended with 100 μM) is on record as 6.27; in series [14] (soil amended with 200 μM), 4.5*; in series [14] (soil amended with 300 μM), 0.7*. The “growth of untransformed cells” value in series [15] is recorded as “unable to grow”. Also, in [16], the “share of accumulated mercury in inorganic Hg-like form (XAS curve fitting)” value was 77%. Moreover, the “share of accumulated mercury in organic Hg-like form (XAS curve fitting)” value in series [16] turned out to be 33%. Moreover, the “effect on root lengths of WT” value in series [8] (concentration in soil from 0 to 300 μM) is “not significantly affected”. The “difference between dry weights of WT and transgenic lines” value in [9] (concentration from 0 to 300 μM in soil) is “no significant differences”. Moreover, the “effect on root lengths of transgenic lines” value in series [9] (concentration in soil from 0 to 300 μM, compared to WT) was “increased the roots lengths”. Besides, the “toxicity to merAB-tobacco plants relative to PMA” value in [9] (supplied at the same concentration) is recorded as “less toxic”.

As for `O=S(=O)([O-])[O-].[Cd+2]` [cadmium sulfate], the “level tolerated by Chlorella” value in [17] is “at least 200 μM”.
